Entries after “also recorded” stand apart in the source; their conditions may differ.
Experiments:
[1] = biological target: T1, PBP10 (PIP2-binding site of gelsolin) (Homo sapiens, UniProt P06396); experiment: Rhodamine-B fluorescence change of gelsolin peptide PBP10 after adding lipids; settings: 2 μM peptide, buffer A pH 7.0, 15 min
T1 construct: made in house; host or cells: solid phase peptide synthesis
Method: Therefore, to determine changes of gelsolin OD at 280 nm, different amounts of LPS, LPA and PS were added to recombinant human gelsolin (rhGLS) solutions and OD emission spectra were recorded using spectrophotometer Genesys 6 (Thermo-Spectronic, USA).
Interaction of LPS and gelsolin was examined using rhodamine B- and pyrene-labeled SEQ ID No:1 (QRLFQVKGRR). The effect of LPS on gelsolin was determined in terms of the rhodamine-B fluorescent changes of PBP10 peptide in the presence of different lipids (FIG. 1C); and the fluorescence emission spectra of pyrene-labeled SEQ ID No:1 (2 μM) in the presence of LPS from Escherichia coli (1.2 μM), PIP2 (0.82 μM) and LPA (0.82 μM) (FIG. 1D) The results using the pyrene-derivatized gelsolin peptide confirmed the LPS induced clustering of the peptide with resulting excimer fluorescence of the pyrene group, which was evident as a large increase in fluorescence emission at 480 nm.
The tested gelsolin concentration was 50 nM; LTA ranged from 0-50 μM; Pyrene-F-actin was 0.3 μM. Recording changes in fluorescently-labeled (rhodamine B-labeled) gelsolin peptide PBP10 (10 μM), indicates a specific interaction between gelsolin and LTA.

[2] = tested on: human aortic endothelial cells (HAEC); experiment: LPS-induced actin cytoskeleton disassembly, phalloidin staining, endothelial cells; format: cell-based; settings: LPS 10 μg/ml, 10 min
Text: (§1) In light of the findings in the previous Examples, and using the materials prepared in above, the effect of the gelsolin binding by LPS was studied to determine the effect on cellular responses in vitro. Cell cultures of human aortic endothelial cells (HAEC) and rat primary astrocytes were used to evaluate the effect of LPS on actin. Both of these cell types have mCD14 (membrane bound C14) and TLR LPS receptors (Faure, et al., J. Biol. Chem. 275:11058-11063 (2000); Bsibsi, et al., J. Neuropathol. Exp. Neurol. 61:1013-1021 (2002); Bowman, et al., Glia 43:281-291 (2003)).
HAECs (primary human aortic endothelial cells) (ATCC, Rockville, Md. or Clonetics, San Diego, Calif.), will grow to confluence through passages 5-9 in endothelial cell growth medium supplemented with 2% fetal bovine serum, 10 μg/liter human recombinant epidermal growth factor, 1 mg/liter hydrocortisone, 50 μg/ml gentamicin, 50 ng/ml amphotericin-B, in a 37° C. humidified atmosphere of 95% air:5% C02.
(§2) HAECs and astrocytes cultures were incubated for 10 minutes in medium containing 10 μg/ml LPS alone, or LPS that had been pre-incubated with 0.16 mg/ml of human gelsolin. […] Location of transcription factor nuclear factor-kappaB (NF-κB) was observed using a monoclonal antibody to NF-κB (Molecular Probes), and cell nuclei were detected by counter-staining with 4′, 6-diamidino-2-phenylindole dihydrochloride (DAPI) (Sigma).

rat primary astrocytes = experiment: LPS-induced actin cytoskeleton disassembly, phalloidin staining, astrocytes; format: cell-based; settings: LPS 10 μg/ml, 10 min
Text: as §1
Rat primary astrocytes were obtained from prenatal rats and maintained for 14 days in culture before use. Embryos (E17-E19) were removed by caesarian section from a Sprague-Dawley rat and the hippocampi were surgically removed. The tissue was digested in trypsin/DNAse at 37° C., centrifuged (1000×5 min) and filtered to derive suspensions from each pup. […]
as §2

[3] = tested on: NF-κB translocation in rat primary astrocytes; experiment: NF-κB translocation to the nucleus in astrocytes; format: cell-based; settings: astrocytes, 2 hour; LPS 2 μM or TNF-α 10 ng/ml
Method: Rat primary astrocytes were obtained from prenatal rats and maintained for 14 days in culture before use. Embryos (E17-E19) were removed by caesarian section from a Sprague-Dawley rat and the hippocampi were surgically removed. The tissue was digested in trypsin/DNAse at 37° C., centrifuged (1000×5 min) and filtered to derive suspensions from each pup. Cells were grown in an incubator at 37° C. and 5% CO2 in DMEM (Dulbecco's Modified Eagle's Medium; BioWhittaker/Cambrex BioScience, East Rutherford, N.J.), supplemented with Ham's F12 (Sigma-Aldrich, St. Louis, Mo.) and 5% fetal bovine serum (FBS) (Hyclone, Logan, Utah) for 7 days, followed by an additional 7 days in Neurobasal medium (Gibco, Grand Island, N.Y.) also supplemented with 5% FBS, 2 mM l-glutamine, 50 μg/ml streptomycin and 50 U/ml penicillin. In each experiment, the medium was changed to serum-free at 6-12 hours prior to addition of LPS, TNF-α, or gelsolin.
HAECs and astrocytes cultures were incubated for 10 minutes in medium containing 10 μg/ml LPS alone, or LPS that had been pre-incubated with 0.16 mg/ml of human gelsolin. Cultures were fixed with ice-cold methanol and immunostained for F-actin with fluorescein isothiocyanate (FITC)-labeled phalloidin (Molecular Probes, Eugene, Oreg.). In astrocyte cultures, NF-κB translocation was manipulated by a 2 hour incubation in serum-free medium containing one of the following: 10 ng/ml TNF-α, 10 μg/ml LPS alone, or LPS that had been preincubated with 0.16 mg/ml human gelsolin. Location of transcription factor nuclear factor-kappaB (NF-κB) was observed using a monoclonal antibody to NF-κB (Molecular Probes), and cell nuclei were detected by counter-staining with 4′, 6-diamidino-2-phenylindole dihydrochloride (DAPI) (Sigma).

## lipopolysaccharide [LPS]
[1]
  fluorescence quenching / change of rhodamine-B peptide: induced identical concentration-dependent fluorescence quenching
[2]
  effect of LPS alone on actin cytoskeleton: rapidly induced the disassembly of the actin cytoskeleton; also recorded: disassembly of the actin cytoskeleton was readily induced; also recorded: rapidly induced disassembly of the actin cytoskeleton
Rat primary astrocytes
  effect of LPS alone on actin cytoskeleton: rapidly induced the disassembly of the actin cytoskeleton; also recorded: disassembly of the actin cytoskeleton was readily induced; also recorded: rapidly induced disassembly of the actin cytoskeleton
[3]
  induction of NF-κB translocation to the nucleus: caused NF-κB translocation to the nucleoplasm; also recorded: resulted in its translocation to the nucleoplasm
